{"source": "patent US20130123107A1", "about": "“Use of Adjuvants to Improve Abscisic Acid Performance” (Valent BioSciences Corporation, priority 2007, published 2013)", "system": "tomato leaf transpiration", "experiment": "tomato leaf transpiration inhibition bioassay", "assay_type": "in vivo, Tomato (variety: Rutgers)", "excerpt": "The compositions of the present invention improve ABA effectiveness by incorporating a surfactant, and optionally a nitrogen-containing fertilizer together with an effective amount of the plant growth regulator abscisic acid (S-ABA; ABA; S-(+)-abscisic acid; +-ABA, (+)-(S)-cis, trans-abscisic acid, (+)-(S)-cis,trans-ABA; S-ABA; (S)-5-(1-hydroxy-2,6,6,-trimethyl-4-oxo-2-cyclohexen-1-yl)-3-methyl-(2Z,4E)-pentadienoic acid; CAS registry no, [21293-29-8]). ABA effectiveness may be measured experimentally by quantifying the inhibition of transpiration in tomato leaves. This is a reliable laboratory bioassay of the level of ABA activity.\nPreparation of plant specimens for use in the treatment studies of the examples described was carried out as follows. Tomato (variety: Rutgers) seeds were sown in an 18-cell flat filled with Promix PGX (available from Premier Horticulture Inc. Quakertown, Pa.) and grown for 3 weeks to allow for germination and initial growth. Plants were then transplanted into pots (18 cm in diameter and 18 cm in height), filled with Promix BX (available from Premier Horticulture Inc. Quakertown, Pa.), and grown for one or two more weeks before treatment, depending on temperature and available light. Plants received daily irrigation and weekly fertilizer (1 g/L all purpose fertilizer 20-20-20, available from The Scotts Company, Marysville, Ohio).\nAll treatment solutions were prepared with distilled water, ABA (95% active ingredient) is available from Lomon BioTechnology Co., Ltd. (Shichuan, China). […]\nUnless otherwise specified, when a surfactant was employed, it was incorporated into the 250-ppm ABA treatment solution at a concentration of 0.05% to 0.5% (v/v).\nABA solutions and blank treatments were applied to the aerial parts of tomato plant leaves at the rate of 20 mL per 6 plants. Plants were then placed in a transparent chamber with humidity controlled within the range of 40 to 60% relative humidity. Leaf transpiration rates were measured at 1, 2 and 3 days; at 1, 2, 3 and 4 days; or at 1, 2, 3, 4 and 7 days after treatment. Measurements were conducted using a LI-1600 Steady State Porameter (LI-Cor, Lincoln, Nebr.). Each day the transpiration rate of the plants of each treatment group was normalized to the percentage of the transpiration rate of untreated plants (plants sprayed with water only) in order to control for day-to-day variability caused by changes of environmental conditions such as light intensity and temperature. In some cases, data of each plant was averaged over a 3-day period to balance the short term and long-term effect of ABA on tomato leaf transpiration as well as to control for experimental variability.\nAll experiments were conducted using a randomized complete block experimental design. Data were analyzed by analysis of variance. Duncan's new multiple range tests at α-005 were used for mean separations.", "note": "Counter-ions that a name gives are not always drawn.", "data": [{"smiles": "CC1=CC(=O)CC(C)(C)[C@@]1(O)/C=C/C(C)=C\\C(=O)O", "note": "[ABA ammonium salt, Ammonium Salt of (S)-(+)-Abscisic Acid]", "values": [{"measurement": "Transpiration rate (% of control)", "setting": "250 ppm ABA or ABA ammonium salt, 1 day after treatment (Table 7)", "value": "68 % of control"}, {"measurement": "Transpiration rate (% of control)", "setting": "250 ppm ABA or ABA ammonium salt, 2 days after treatment (Table 7)", "value": "73 % of control"}, {"measurement": "Transpiration rate (% of control)", "setting": "250 ppm ABA or ABA ammonium salt, 3 days after treatment (Table 7)", "value": "84 % of control"}, {"measurement": "Transpiration rate (% of control), Average", "setting": "250 ppm ABA or ABA ammonium salt, average of days 1-3 after treatment (Table 7)", "value": "75 % of control"}, {"measurement": "Transpiration rate (% of control)", "setting": "250 ppm ABA or salt at rates equivalent to 250 ppm ABA, 1 day after treatment (Table 10)", "value": "58 % of control"}, {"measurement": "Transpiration rate (% of control)", "setting": "250 ppm ABA or salt at rates equivalent to 250 ppm ABA, 2 days after treatment (Table 10)", "value": "67 % of control"}, {"measurement": "Transpiration rate (% of control)", "setting": "250 ppm ABA or salt at rates equivalent to 250 ppm ABA, 3 days after treatment (Table 10)", "value": "78 % of control"}, {"measurement": "Transpiration rate (% of control), Average", "setting": "250 ppm ABA or salt at rates equivalent to 250 ppm ABA, average of days 1-3 (Table 10)", "value": "68 % of control"}]}]}
